We go through three molecules from ChEMBL document CHEMBL3217742, “Mapping of a lipoglycopeptide antibiotic binding site on Staphylococcus aureus penicillin-binding protein 2 using a vancomycin photoaffinity analogue” (2012).

In brackets after ≈: the same amount, converted by molar mass. Activity calls are given as the source filed them. No cut-off for these calls is given here.

Assay [1] deals with Staphylococcus aureus. In words: Antibacterial activity against vancomycin-susceptible Staphylococcus aureus RN4220. Format: functional.
For assay [2], the system named is Enterococcus faecium. In words: Antibacterial activity against vancomycin-susceptible Enterococcus faecium SR16972. Format: functional.
The subject of assay [3] is Staphylococcus aureus. In words: Antibacterial activity against vancomycin A-resistant Staphylococcus aureus VRS2. Format: functional.
Assay [4] concerns Enterococcus faecium. Kind of assay: Antibacterial activity against vancomycin B-resistant Enterococcus faecium SR23598. Format: functional.
Assay [5] deals with Enterococcus faecium. Kind of assay: Antibacterial activity against vancomycin A-resistant Enterococcus faecium SR7940. Format: functional.
Assay [6] concerns Staphylococcus aureus subsp. aureus RN4220. Kind of assay: Displacement of photoaffinity probe 1 from penicillin-binding protein-2 in Staphylococcus aureus RN4220 cell membrane incubated for 5 mins prior to photoaffinity probe 1 challenge for 5 mins measured after UV irradiation by SDS-PAGE based western blot analysis.
Assay [7] has the same test system. Kind of assay: Binding affinity to penicillin-binding protein-2 transpeptidase domain in Staphylococcus aureus RN4220 cell membrane at 1 uM incubated for 1 hr measured after UV irradiation by pull-down assay.
For assay [8] the test system is unchanged. Kind of assay: Binding affinity to Staphylococcus aureus RN4220 recombinant C-terminal His6-tagged PBP2 expressed in Escherichia coli cells at 2 uM incubated for 2 hrs measured after UV irradiation by LC-MALDI-MS/MS analysis.
The test system is the same in assay [9]. In words: Binding affinity to penicillin-binding protein-2 in Staphylococcus aureus RN4220 cell membrane at 50 uM incubated for 20 mins measured after UV irradiation by SDS-PAGE based immunostaining.

One may read the MIC as the lowest concentration found to suppress growth. The low end stands for greater potency, the high end for weaker potency. Take `CN[C@H](CC(C)C)C(=O)N[C@H]1C(=O)N[C@@H](CC(N)=O)C(=O)N[C@H]2C(=O)N[C@H]3C(=O)N[C@H](C(=O)N[C@H](C(=O)O)c4cc(O)cc(O)c4-c4cc3ccc4O)[C@H](O)c3ccc(c(Cl)c3)Oc3cc2cc(c3O[C@@H]2O[C@H](CO)[C@@H](O)[C@H](O)[C@H]2O[C@H]2C[C@](C)(NCc3cccc(NC(=O)c4ccc(C)c(OCc5ccccc5)c4[N+](=O)[O-])c3)[C@H](O)[C@H](C)O2)Oc2ccc(cc2Cl)[C@H]1O`: the MIC in the assay on Staphylococcus aureus [1] came out at 0.125 µg/mL (≈ 0.0685 µM); against Enterococcus faecium [2], 0.25 µg/mL (≈ 0.137 µM); in the assay with Staphylococcus aureus [3], 0.5 µg/mL (≈ 0.274 µM); against Enterococcus faecium [4], 0.25 µg/mL (≈ 0.137 µM); in the assay on Enterococcus faecium [5], 1 µg/mL (≈ 0.548 µM). Further, the inhibition result in assay [6] is “Dose-dependent effect”.

Consider `CN[C@H](CC(C)C)C(=O)N[C@H]1C(=O)N[C@@H](CC(N)=O)C(=O)N[C@H]2C(=O)N[C@H]3C(=O)N[C@H](C(=O)N[C@H](C(=O)O)c4cc(O)cc(O)c4-c4cc3ccc4O)[C@H](O)c3ccc(c(Cl)c3)Oc3cc2cc(c3O[C@@H]2O[C@H](CO)[C@@H](O)[C@H](O)[C@H]2O[C@H]2C[C@](C)(N)[C@H](O)[C@H](C)O2)Oc2ccc(cc2Cl)[C@H]1O` [VANCOMYCIN], for which the minimal inhibitory concentration (MIC) against Staphylococcus aureus [3], against Enterococcus faecium [4] and against Enterococcus faecium [5] was greater than 64 µg/mL each time.

Regarding `CN[C@H](CC(C)C)C(=O)N[C@H]1C(=O)N[C@@H](CC(N)=O)C(=O)N[C@H]2C(=O)N[C@H]3C(=O)N[C@H](C(=O)N[C@H](C(=O)NCCCOCCOCCOCCCNC(=O)CCCC[C@@H]4SC[C@@H]5NC(=O)N[C@@H]54)c4cc(O)cc(O)c4-c4cc3ccc4O)[C@H](O)c3ccc(c(Cl)c3)Oc3cc2cc(c3O[C@@H]2O[C@H](CO)[C@@H](O)[C@H](O)[C@H]2O[C@H]2C[C@](C)(NCc3ccc(NC(=O)c4ccc(C5(C(F)(F)F)N=N5)cc4)nc3)[C@H](O)[C@H](C)O2)Oc2ccc(cc2Cl)[C@H]1O`, the outcome in assay [7], in assay [8] and in assay [9] was Active. Also, the MIC against Staphylococcus aureus [1] is 1 µg/mL (≈ 0.455 µM); against Enterococcus faecium [2], 0.5 µg/mL (≈ 0.228 µM); against Staphylococcus aureus [3] it was 2 µg/mL (≈ 0.911 µM); against Enterococcus faecium [4], 0.5 µg/mL (≈ 0.228 µM); in the assay with Enterococcus faecium [5], 2 µg/mL (≈ 0.911 µM).
